Results from patent publication US10092568B2, “CBP/Catenin antagonists for enhancing asymmetric division of somatic stem cells” (University of Southern California, priority 2010, dated 2018).
“Also recorded” adds a separate entry of the source.

Assays:
[1] = system: p300/beta-catenin interaction; assay: Disruption of the p300/beta-catenin interaction; format: biochemical
From the text: Applicant next mapped the binding domains between CBP and beta-catenin, as well as between p300 and beta-catenin. The C-terminal trans-activating region of beta-catenin (647-781) interacted with the same 1-111 amino acids of both CBP and p300 (23). However, only the interaction between CBP and beta-catenin was disrupted by ICG-001, and not the p300/beta-catenin interaction.
(§1) IQ-1. In addition to ICG-001, a screen of a large chemical library for maintenance of pluripotency in mES cells led to the identification of another compound, termed IQ-1 (FIG. 2b). […] I-Q-1 diminishes the interaction between p300 and beta-catenin thereby increasing the CBP/beta-catenin interaction (24).

[2] = system: PR72/130 subunit of the serine/threonine phosphatase PP2A; assay: Binding to PP2A subunit
From the text: as §1

[3] = system: p300 at Ser-89; assay: Phosphorylation of p300 at Ser-89; format: cell-based
From the text: as §1

[4] = system: mitotic cells in the ventricular zone (VZ); assay: Par3 localization assay of symmetric versus asymmetric divisions in the ventricular zone of embryonic brain; format: in vivo, mouse
From the text: Taking advantage of the ready uptake and penetration through the placental barrier of applicant's small molecule Wnt modulators, applicant designed a series of experiments to investigate symmetric versus asymmetric divisions in the ventricular zone (VZ) of the brain during mouse embryonic development. Timed pregnant mice were topically treated for various time periods (1-3 days) with DMSO (vehicle control), the CBP/catenin antagonist ICG-001 or the p300/catenin antagonist IQ-1. Using a previously described protocol (56), the localization of […] (Par3) and DNA was examined in mitotic cells in the VZ. Par3 distributes symmetrically in cells that divide symmetrically and asymmetrically in cells that divide asymmetrically, whereas the DNA distributes symmetrically between the 2 cells. Using fluorescence microscopy, the percentage of mitotic cells dividing symmetrically or asymmetrically could be quantified. […] Antagonizing the CBP/catenin interaction with ICG-001 had no apparent effect yielding similarly, approximately 21% asymmetric divisions. […] Importantly, this decrease in asymmetric divisions upon treatment with IQ-1 could be rescued back essentially to control levels (i.e. ˜21%) by treatment with a 2-fold excess of ICG-001. Even further divergence in symmetric versus asymmetric divisions could be seen upon prolonged treatments. For example, treatment with IQ-1 (i.e., antagonizing p300/catenin interaction leading to increased usage of CBP) for 3 days (E13.5-16.5) decreased asymmetric divisions compared to control from 31% to 7%. […] This reporter mouse expresses EGFP, driven by the Tis21 promoter, in cells that have undergone neurogenic differentiative divisions.
For example, Bultje et al. (Bultje R Neuron 63, 189-202, 2009) describe an assay to measure asymmetric distributions in the ventricular zone (vz) to evaluate asymmetric divisions during neurogenesis. Essentially this involves treating the animal (either adult or in utero) for a set period of time with compounds (either p.o., s.c., i.v. or topically) with compounds and then sacrificing the animal and examining the Par3 distribution (e.g., via immunohistochemistry) in mitotic cells vs. DNA distribution (e.g., using DAPI staining) Par3 distributes equally among the two daughter cells during symmetric division and unequally (essentially all in one daughter cell) during asymmetric differentiation.

[5] = system: murine embryonic stem cells (mESCs); assay: Maintenance of pluripotency of embryonic stem cells in long-term culture; format: cell-based, mouse; settings: Wnt-dependent
From the text: as §1
Similar results upon selectively antagonizing the p300/catenin interaction have also been obtained with human ES cells (32; Hasegawa, K. et al. accepted Stem Cells Translation Medicine 2011). Blocking the CBP/catenin interaction with ICG-001 can prevent the induction of pluripotency, whereas selectively antagonizing the p300/catenin interaction can enhance reprogramming (33; present applicant unpublished data).

[6] = system: hair-less mouse model; assay: Hair growth in a hair-less mouse model; format: in vivo
Method: The ability of CBP/β-catenin antagonist to stimulate hair growth in a hair-less mouse model was tested. In brief, the animals were treated with either petroleum jelly or Laura-8 for 16 days. In addition, skin samples from each animal were taken and examined for hair-follicle formulation.

[7] = system: aging mice; assay: Long term topical treatment of aging mice; format: in vivo, mouse; settings: 12 months, from 6 to 18 months of age
From the text: Left mouse is control, whereas right mouse received CBP/catenin (e.g., CBP/β-catenin) antagonists (topical Laura-8 as disclosed herein) for 12 months (from 6 months of age to 18 months of age).

[8] = system: skin injury; assay: Skin injury repair in normal mice and hair-less mice models; format: in vivo, mouse; settings: 500 μM in vaseline once a day for eight days, both animal models
Method: The ability of CBP/catenin (e.g., CBP/β-catenin) antagonist to accelerate injured skin repair in normal mice models (having full hair growth and normal fur) and hair-less mice models was tested. In brief, on day 0, the animals were subjected to skin injury in two spots on the back, hind end of each animal. Each skin injury spot was treated with 500 μM of either Vaseline (petrolatum) (vehicle) or Laura-8 in vaseline once a day for eight days.

[9] = system: human skin (surgical waste); assay: Ex vivo human skin assay, qRT-PCR; format: cell-based; settings: 24 hrs; 5 uM ICG-001, 5 uM methylated ICG-001, 1 ug/ml RA
Method: Methods. Ex Vivo human skin assay culture conditions were based upon a paper by Varani J et al Experimental and Molecular Pathology, 2004.
Briefly, human skin (surgical waste from plastic surgery procedures) was obtained and the subcutaneous layer of fat was trimmed manually with a scalpel. The skin was then cut into small fragments about 2 mm square and placed in 6 well plates. 1 ml of keratinocyte culture medium (Gibco 10724-011) with 1% P/S (penstrep antibiotic) was added to each well. The epidermis, bathed in media was placed facing up. On the next day (overnight culture in the media above), the skin fragments were transferred to fresh wells that contained either 5 uM ICG-001, 5-uM methylated ICG-001 or 1 ug/ml of retinoic acid (RA). After 24 hrs, skin samples in culture were removed for RNA isolation and qRT-PCR analysis of genes of interest (e.g., elastin (a gene involved in skin appearance and pliability (e.g., wrinkling)) and aquaporin 1, which is involved with hydration.

CC(=O)c1ccc(N=NC(C(N)=O)=C2NC(C)(C)Cc3ccccc32)cc1 [IQ-1, reference compound]
p300/beta-catenin interaction [1]: diminishes | binding to PR72/130 subunit of PP2A [2]: binds | phosphorylation of p300 at Ser-89 [3]: decreased phosphorylation | asymmetric divisions in the VZ ([4]; 3 days, E13.5-16.5, control 31%): 7% | number of symmetric differentiative divisions ([4]; normal neural stem cells): increase | number of asymmetric divisions compared to vehicle control ([4]; topical or oral administration to pregnant mice): decreases | asymmetric divisions in the VZ ([4]; topical, 1 day, E13.5 to 14.5, DMSO approximately 21%): approximately 9% | pluripotency of mESCs [5]: maintains the pluripotency; also recorded: prevents spontaneous differentiation

CCCCCCCCCCCC(=O)Oc1ccc(C[C@H]2C(=O)N(Cc3cccc4ccccc34)C[C@@H]3N(C(=O)NCc4ccccc4)CCC(=O)N32)cc1 [Laura-8]
hair growth ([6]; 16 days, versus petroleum jelly): significant hair growth | new hair-follicle formation ([6]; skin pathology): new hair-follicles were formed; also recorded: substantial new hair-follicle formation | normal stem cell niche [7]: does not deplete | skin healing [8]: significantly accelerated

C[C@H]1C2N(C(=O)NCc3ccccc3)CCC(=O)N2[C@@H](Cc2ccc(O)cc2)C(=O)N1Cc1cccc2ccccc12 (some centres unmarked) [Me-ICG-001]
expression of aquaporin 1 [9]: larger increase | expression of elastin [9]: larger increase
